Patent US20120328638A1, “MYBL2 PEPTIDES AND VACCINES CONTAINING THE SAME” (Onco Therapy Science, Inc., priority 2009, published 2012)
Entries after “also recorded” stand apart in the source; their conditions may differ. Ends that are not written are not given here.

Assays:
peptide-pulsed T2 cells = assay: IFN-gamma ELISPOT assay of peptide specific CTL activity after in vitro CTL induction; type: cell-based, human; conditions: against peptide-pulsed T2 cells compared with control not pulsed; PBMCs of HLA-A*0201 positive donor; day 21
Text: Monocyte-derived dendritic cells (DCs) were used as antigen-presenting cells (APCs) to induce cytotoxic T lymphocyte (CTL) responses against peptides presented on human leukocyte antigen (HLA). DCs were generated in vitro as described elsewhere (Nakahara S et al., Cancer Res 2003 Jul. 15, 63(14): 4112-8). Specifically, peripheral blood mononuclear cells (PBMCs) isolated from a normal volunteer (HLA-A*0201 positive) by Ficoll-Plaque (Pharmacia) solution were separated by adherence to a plastic tissue culture dish (Becton Dickinson) so as to enrich them as the monocyte fraction. The monocyte-enriched population was cultured in the presence of 1000 U/ml of granulocyte-macrophage colony-stimulating factor (R&D System) and 1000 U/ml of interleukin (IL)-4 (R&D System) in AIM-V Medium (Invitrogen) containing 2% heat-inactivated autologous serum (AS). After 7 days of culture, the cytokine-induced DCs were pulsed with 20 microgram/ml of each of the synthesized peptides in the presence of 3 microgram/ml of beta 2-microglobulin for 3 hrs at 37 degrees C. in AIM-V Medium. The generated cells appeared to express DC-associated molecules, such as CD80, CD83, CD86 and HLA class II, on their cell surfaces (data not shown). […]

[1] = system: target cells pulsed with the corresponding peptide (T2); assay: IFN-gamma ELISA assay of established CTL line and CTL clone; type: cell-based, human
Protocol: CTLs were expanded in culture using the method similar to the one described by Riddell et al. (Walter E A et al., N Engl J Med 1995 Oct. 19, 333(16): 1038-44; Riddell S R et al., Nat Med 1996 February, 2(2): 216-23). A total of 5×10^4 CTLs were suspended in 25 ml of AIM-V/5% AS medium with 2 kinds of human B-lymphoblastoid cell lines, inactivated by Mitomycin C, in the presence of 40 ng/ml of anti-CD3 monoclonal antibody (Pharmingen). One day after initiating the cultures, 120 IU/ml of IL-2 were added to the cultures. The cultures were fed with fresh AIM-V/5% AS medium containing 30 IU/ml of IL-2 on days 5, 8 and 11 (Tanaka H et al., Br J Cancer 2001 Jan. 5, 84(1): 94-9; Umano Y et al., Br J Cancer 2001 Apr. 20, 84(8): 1052-7; Uchida N et al., Clin Cancer Res 2004 Dec. 15, 10(24): 8577-86; Suda T et al., Cancer Sci 2006 May, 97(5): 411-9; Watanabe T et al., Cancer Sci 2005 August, 96(8): 498-506).
The dilutions were made to have 0.3, 1, and 3 CTLs/well in 96 round-bottomed micro titer plate (Nalge Nunc International). CTLs were cultured with 1×10^4 cells/well of 2 kinds of human B-lymphoblastoid cell lines, 30 ng/ml of anti-CD3 antibody, and 125 U/ml of IL-2 in a total of 150 microliter/well of AIM-V Medium containing 5% AS. 50 microliter/well of IL-2 were added to the medium 10 days later so to reach a final concentration of 125 U/ml IL-2. […]

[2] = system: COS7 cells transfected with MYBL2 and HLA-A*0201; assay: Specific CTL activity against target cells exogenously expressing MYBL2 and HLA-A*0201; type: cell-based, African green monkey
Text: The cDNA encoding an open reading frame of target genes or HLA-A*0201 was amplified by PCR. The PCR-amplified product was cloned into expression vector. The plasmids were transfected into COS7, which is the target genes and HLA-A*0201-null cell line, using lipofectamine 2000 (Invitrogen) according to the manufacturer's recommended procedures. After 2 days from transfection, the transfected cells were harvested with versene (Invitrogen) and used as the stimulator cells (5×10^4 cells/well) for CTL activity assay.
The established CTL clone raised against MYBL2-A02-9-144 (SEQ ID NO: 3) was examined for the ability to recognize target cells that express MYBL2 and HLA-A*0201 molecule. […] COS7 cells transfected with either full length of MYBL2 or HLA-A* 0201 were prepared as the controls.

| Sequence | IFN-gamma production of CTLs stimulated with peptide (ELISPOT) (peptide-pulsed T2 cells) | IFN-gamma production of CTL clone (ELISA) ([1]; CTL clone established by limiting dilution, target cells pulsed with peptide vs not pulsed) | IFN-gamma production of CTL line (ELISA) ([1]; CTL line from well #8, target cells pulsed with peptide vs without peptide pulse) | Specific CTL activity of CTL clone against COS7 cells expressing both MYBL2 and HLA-A*0201 ([2]; COS7 transfected with both full length MYBL2 and HLA-A*0201) | Specific CTL activity of CTL clone against control COS7 cells ([2]; COS7 transfected with either full length MYBL2 or HLA-A*0201 alone) |
| --- | --- | --- | --- | --- | --- |
| VLPPRQPSA [MYBL2-A02-9-355, VLPPRQPSA] | specific IFN-gamma production was not observed; also recorded: no specific IFN-gamma production was detected |  |  |  |  |
| RIICEAHKV [MYBL2-A02-9-144, RIICEAHKV] | potent IFN-gamma production | potent IFN-gamma production | potent IFN-gamma production | potent CTL activity; also recorded: specific CTL activity | no significant specific CTL activity was detected |
